Experiment [1] deals with anti-IgG affibody. The experiment in a line: Affibody binding/elution in non-competitive conditions on peptide–Toyopearl, anti-IgG affibody. The settings on record: 100 μL of 50:50 labeled anti-HSA and anti-IgG affibodies, total 1 mg/mL, in PBS pH 7.4; 50 μL resin; 1 h, room temperature; elution 0.2 M acetate pH 3.8; fluorescence spectroscopy. As for the experimental part:
(§1) Ten peptides selected by sequence homology, namely, ARISRQ, IGKQRI, DIRIIR, QAAKRI, SHHSQR, DIHIRR, DHHKKA, DIRIQR, KSAYHS, and IHQRGQ, were tested as ligand candidates through binding studies in non-competitive conditions (pure affibody). The peptides were synthesized directly on Toyopearl AF-Amino 650 M resin by Fmoc/tBu synthesis; polymethacrylate-based Toyopearl resin was chosen as a chromatographic support for secondary screening in place of ChemMatrix, owing to its chemical resistance to the reagents and solvents used for peptide synthesis, low non-specific protein binding, and mechanical strength. The peptide–Toyopearl adsorbents were individually incubated with a 1:1 solution of AF594-labeled anti-HSA affibody and AF488-labeled anti-IgG affibody at the concentration of 1 mg/mL for 1 h at room temperature under gentle rotation. After washing with PBS, affibody elution (EL) was performed under acidic conditions (pH 3.8), followed by resin regeneration (R) using a harsh denaturing buffer (0.45% w/v 3-[(3-cholamidopropyl)dimethylammonio]-1-propanesulfonate (CHAPS) in 0.1 M glycine, pH 2.5). The amounts of affibodies in the unbound (UB), elution (EL), and regeneration (R) fractions, measured by fluorescence spectroscopy, were utilized to calculate the values of flow-through (FT) ratio (mass of affibody in the FT fraction vs. mass of fed antibody) and yield (mass of affibody eluted vs. mass of bound affibody), listed in Table 2.
(§2) The identified sequences were synthesized on Toyopearl AF-Amino 650 M resin by Fmoc/tBu synthesis to be tested for affibody binding in non-competitive mode. Aliquots of 50 μL of each peptide–Toyopearl adsorbent were transferred in a PCR tube, swollen in 20% methanol overnight, and copiously washed in 20% methanol to remove any residual chemical from peptide synthesis, before equilibrating in Milli-Q water followed by PBS, pH 7.4. Next, 100 μL of 50:50 solution of fluorescently labeled anti-HSA and anti-IgG affibodies (Section 2.3) at a total 1 mg/mL affibody concentration were incubated with every aliquot of peptide–Toyopearl resin for 1 h at room temperature under gentle rotation. Following incubation, the resins were pelleted by centrifugation, and the supernatant was collected and marked as “unbound” (UB) fraction. The resins were then washed with PBS and the supernatant were combined with the UB fractions. Protein elution (EL) was then performed by incubating the resins with 0.2 M acetate buffer at pH 3.8 (0.2 M acetic acid and 0.2 M sodium acetate at a 7:3 ratio) for 30 min at room temperature, and then by washing with the same elution buffer. Regeneration (R) was then performed by incubating the adsorbents with 100 mM glycine buffer at pH 2.5 added with 0.45% w/v CHAPS, at 4 °C for overnight. The collected elution fractions (EL and R) were finally equilibrated to neutral pH using PBS, pH 7.4. Finally, both UB and E fractions were diluted in PBS and analyzed by fluorescence spectroscopy.

Experiment [2] deals with anti-HSA affibody. Briefly: Affibody binding/elution in non-competitive conditions on peptide–Toyopearl, anti-HSA affibody. The settings on record: 100 μL of 50:50 labeled anti-HSA and anti-IgG affibodies, total 1 mg/mL, in PBS pH 7.4; 50 μL resin; 1 h, room temperature; elution 0.2 M acetate pH 3.8; fluorescence spectroscopy. As for the experimental part:
as §1, §2

Experiment [3] concerns 1:1 solution of AF594-labeled anti-HSA affibody and AF488-labeled anti-IgG affibody. The experiment in a line: Affibody binding/elution in non-competitive conditions on peptide–Toyopearl, affibody mixture. The settings on record: for Yield (mass of affibody eluted vs. mass of bound affibody): non-competitive (pure affibody), PBS pH 7.4, 1 h, room temperature, elution pH 3.8, fluorescence spectroscopy; for capture of IgG-binding and HSA-binding affibodies compared: non-competitive, pure affibodies 1:1. As for the experimental part: as §1, §2

Experiment [4] relates to anti-IgG affibody. The experiment in a line: Affibody purification in competitive conditions (clarified E. coli cell lysate), anti-IgG affibody. The class given is binding. The settings on record: elution pH 3.8; for Recovery, anti-IgG affibody: 0.4 mg/mL affibody and 2 mg/mL E. coli HCPs, 200 μL feed, room temperature, eluted vs. loaded amount, fluorescence spectroscopy; for Purity, anti-IgG affibody: competitive, clarified E. coli cell lysate, densitometric analysis of EL lanes, SDS-PAGE. As for the experimental part:
(§3) The adsorbents IGKQRI–GSG–Toyopearl, IHQRGQ–GSG–Toyopearl, KSAYHS–GSG–Toyopearl, and DIRIIR–GSG–Toyopearl resins were utilized to evaluate the ability of the selected sequences to purify affibody molecules from complex sources. To this end, a feed sample was prepared by spiking fluorescently labeled anti-HSA and anti-IgG affibodies at a 1:1 molar ratio into clarified E. coli cell lysate, to obtain a final concentration of 0.4 mg/mL of affibody and 2 mg/mL of bacterial HCPs. The peptide–Toyopearl adsorbents were incubated with 200 μL of feed sample for 30 min at room temperature under gentle rotation. The unbound (UB) and elution (EL) fractions were analyzed by fluorescence spectroscopy and SDS-PAGE (Figure 1) to determine the values of recovery and purity for both affibody products (Table 3). It is noted that the mass of the affibody product measured electrophoretically appears to be double than the theoretical 6.5 kDa; this is likely due to dimerization of the affibodies by formation of a disulfide bond through their C-terminal cysteine residues.
(§4) Three sequences selected in Section 2.6 were then evaluated for affibody binding in competitive mode. Aliquots of 100 μL of the peptide–Toyopearl adsorbents were swollen and equilibrated as described in Section 2.6. The feed sample was prepared by combining 100 μL of equimolar solution of fluorescently labeled anti-HSA and anti-IgG affibodies at a total 2 mg/mL affibody concentration with 400 μL of clarified E. coli cell lysate at the adjusted concentration of host cell proteins (HCPs) of 2.5 mg/mL, to obtain a final concentration of 0.4 mg/mL of affibody and 2 mg/mL of HCPs. Next, 200 μL of feed samples were incubated with each aliquot of wet peptide–Toyopearl resin for 2 h at room temperature under gentle rotation. After incubation, unbound (UB) and elution (EL) fractions were obtained as described in Section 5.2.5; they were then analyzed by fluorescence spectroscopy to determine the yield of both affibodies and finally by SDS-PAGE to determine the total purity of the eluted affibody products.
(§5) The collected fractions were desalted into phosphate buffer at pH 7.4 using Amicon Ultra 0.5-mL centrifugal filters (3 kDa MWCO). Based on the total protein concentration determined by Bradford assay, the collected fractions were adjusted at a total protein concentration of 0.1 mg/mL, diluted 1:1 with 2× Laemmli sample buffer containing 5% β-mercaptoethanol, and incubated at 100 °C for 5 min. Next, 20 µL of each sample was loaded onto each well of a 12% Mini PROTEAN® TGX precast electrophoresis gel. Then, 10 µL of Precision Plus Protein TM Dual Color Standards diluted 100× in Laemmli sample buffer was loaded in the first and last wells. Gels were electrophoresed at 100 V constant for 95 min using a Mini PROTEAN Tetra Cell (Bio-Rad, Hercules, CA, USA) linked to a PowerPac 300 power supply (Bio-Rad). Gels were fixed in 10% acetic acid, 40% ethanol in MilliQ water for 1 h. Fixed gels were washed with MilliQ water and Coomassie stained. Imaging and densitometric analysis were performed with a GelDoc XR+ (Bio-Rad) and Image Lab software (Bio-Rad) with band intensities scaled to the intensity of an affibody standard.

Experiment [5] relates to anti-HSA affibody. The experiment in a line: Affibody purification in competitive conditions (clarified E. coli cell lysate), anti-HSA affibody. The class given is binding. Conditions: elution pH 3.8; for Recovery, anti-HSA affibody: 0.4 mg/mL affibody and 2 mg/mL E. coli HCPs, 200 μL feed, room temperature, eluted vs. loaded amount, fluorescence spectroscopy; for Purity, anti-HSA affibody: competitive, clarified E. coli cell lysate, densitometric analysis of EL lanes, SDS-PAGE. As for the experimental part:
as §3, §4, §5

Experiment [6] concerns anti-IgG, anti-HSA, and anti-ErbB2 affibodies. The experiment in a line: Langmuir adsorption isotherms, all three affibodies. The class given is binding.
Method: The adsorption isotherms of anti-IgG, anti-HSA, and anti-ErbB2 affibodies on IGKQRI–GSG–Toyopearl resin were performed as described in prior work [37, 51]. Toyopearl resins functionalized with human IgG and serum albumin were utilized as corresponding positive controls, while Toyopearl® HW-40F was utilized as a negative control. Briefly, the adsorbents were incubated with solutions of target affibody at concentrations ranging between 0.01 and 2 mg/mL until binding equilibrium was reached (2.5 h). The values of bound affibody per volume of resin (q) and the corresponding equilibrium concentration of unbound affibody (C*) were fit to a Langmuir isotherm model to determine the value of maximum binding capacity (Qmax) and dissociation constant (KD,Langmuir).
Eight 50-µL aliquots of IGKQRI–GSG–Toyopearl resin were initially equilibrated in PBS at pH 7.4. Eight 0.2-mL solutions of anti-hIgG, anti-hHSA, and anti-ErbB2 affibodies in PBS at concentrations ranging from 0.01 to 2 mg/mL were prepared and incubated with the aliquots of IGKQRI–GSG–Toyopearl resin for 2.5 h at room temperature under mild shaking. […] The supernatant and washing solutions were combined and analyzed by fluorescence spectroscopy to determine the equilibrium concentration of affibody solution. The mass of affibody bound by the resin was determined by mass balance. […]

Where no end group is shown, it is not given here.

Regarding ARISRQ, the “mFT/mE (Anti-IgG), flow-through elution mass ratio” value in the experiment on anti-IgG affibody [1] was found to be 0.885. Further, the “mFT/mE (Anti-HSA), flow-through elution mass ratio” value with anti-HSA affibody [2] is 1.709. In experiment [3], the “Yield (mass of affibody eluted vs. mass of bound affibody)” value turned out to be 51.7%.
For DHHKKA, the “mFT/mE (Anti-IgG), flow-through elution mass ratio” value in the experiment with anti-IgG affibody [1] worked out at 1.256. The “mFT/mE (Anti-HSA), flow-through elution mass ratio” value in the experiment with anti-HSA affibody [2] turned out to be 2.039. In addition, in experiment [3], the “Yield (mass of affibody eluted vs. mass of bound affibody)” value is 38.5%.
For DIHIRR the same measures were 1.277, 0.473 and 40.4%.
As to DIRIIR, in the experiment on anti-IgG affibody [4], the “Recovery, anti-IgG affibody” value is 78.3% ± 2.5% and the “Purity, anti-IgG affibody” value is 96.5%. Moreover, in the experiment on anti-HSA affibody [5], the “Recovery, anti-HSA affibody” value is 74.9% ± 3.6% and the “Purity, anti-HSA affibody” value came out at 96.2%. For the same substance, in the experiment on anti-IgG affibody [1], the “mFT/mE (Anti-IgG), flow-through elution mass ratio” value was 0.707. In addition, in the experiment with anti-HSA affibody [2], the “mFT/mE (Anti-HSA), flow-through elution mass ratio” value is recorded as 1.553.
As for DIRIQR, in the experiment with anti-IgG affibody [1], the “mFT/mE (Anti-IgG), flow-through elution mass ratio” value stood at 0.445. For the same substance, in the experiment with anti-HSA affibody [2], the “mFT/mE (Anti-HSA), flow-through elution mass ratio” value is reported as 2.401. In experiment [3], the “Yield (mass of affibody eluted vs. mass of bound affibody)” value worked out at 39.5%.
On to IGKQRI [IGKQRI], for which, in the experiment with anti-IgG affibody [4], the “Recovery, anti-IgG affibody” value was 97.2% ± 1.5% and the “Purity, anti-IgG affibody” value came to 95.8%. Also, in the experiment on anti-HSA affibody [5], the “Recovery, anti-HSA affibody” value is given as 95.2% ± 4.6% and the “Purity, anti-HSA affibody” value stood at 94.1%. In the experiment with anti-IgG affibody [1], the “mFT/mE (Anti-IgG), flow-through elution mass ratio” value amounted to 0.448. The “mFT/mE (Anti-HSA), flow-through elution mass ratio” value in the experiment on anti-HSA affibody [2] is given as 0.628. Moreover, in experiment [3], the “capture of IgG-binding and HSA-binding affibodies compared” value was “equal capture of IgG-binding and HSA-binding affibodies”. The “binding of all target affibodies compared” value in experiment [6] (Langmuir isotherms) is “comparable affinity and binding capacity”. Further, in experiment [6] (static binding, pure affibodies, summary over three affibodies), the “binding capacity (Qmax), summary” value is listed as ~ 5 mg affibody per mL of resin.
As for IHQRGQ, in the experiment on anti-IgG affibody [4], the “Recovery, anti-IgG affibody” value was 95.3% ± 4.5% and the “Purity, anti-IgG affibody” value was determined as 93.1%. Moreover, in the experiment with anti-HSA affibody [5], the “Recovery, anti-HSA affibody” value is recorded as 96.1% ± 2.4% and the “Purity, anti-HSA affibody” value came to 92.6%. Further, the “mFT/mE (Anti-IgG), flow-through elution mass ratio” value in the experiment on anti-IgG affibody [1] was 0.446. Moreover, the “mFT/mE (Anti-HSA), flow-through elution mass ratio” value in the experiment with anti-HSA affibody [2] turned out to be 0.781. The “capture of IgG-binding and HSA-binding affibodies compared” value in experiment [3] was “equal capture of IgG-binding and HSA-binding affibodies”.
For the substance KSAYHS, in the experiment on anti-IgG affibody [4], the “Recovery, anti-IgG affibody” value is 88.6% ± 3.4% and the “Purity, anti-IgG affibody” value came to 96.4%. Further, in the experiment with anti-HSA affibody [5], the “Recovery, anti-HSA affibody” value was 89.5% ± 0.7% and the “Purity, anti-HSA affibody” value came out at 96.3%. The “mFT/mE (Anti-IgG), flow-through elution mass ratio” value in the experiment on anti-IgG affibody [1] was determined as 0.405. For the same substance, the “mFT/mE (Anti-HSA), flow-through elution mass ratio” value in the experiment with anti-HSA affibody [2] is listed as 0.796. The “capture of IgG-binding and HSA-binding affibodies compared” value in experiment [3] was “equal capture of IgG-binding and HSA-binding affibodies”.
Regarding QAAKRI, the “mFT/mE (Anti-IgG), flow-through elution mass ratio” value in the experiment on anti-IgG affibody [1] is on record as 2.245. The “mFT/mE (Anti-HSA), flow-through elution mass ratio” value in the experiment on anti-HSA affibody [2] worked out at 0.801. The “Yield (mass of affibody eluted vs. mass of bound affibody)” value in experiment [3] stood at 35%.
SHHSQR: the “mFT/mE (Anti-IgG), flow-through elution mass ratio” value in the experiment with anti-IgG affibody [1] was 1.238. The “mFT/mE (Anti-HSA), flow-through elution mass ratio” value in the experiment on anti-HSA affibody [2] came out at 1.387. Also, in experiment [3], the “Yield (mass of affibody eluted vs. mass of bound affibody)” value stood at 44.3%.

For the origin of these results see publication PMC7312911, “Affibody-Binding Ligands” (International Journal of Molecular Sciences, 2020).
